Source: ChEMBL document CHEMBL2384946 (Bioorg Med Chem, 2013)

Columns and labels:
D(2) dopamine receptor [1] = molecular target: T1, D(2) dopamine receptor (Homo sapiens, UniProt P14416); experiment: Agonist activity at human dopamine D2L receptor expressed in CHO cells assessed as stimulation of [35S]GTPgammaS binding after 60 mins by scintillation counting analysis; type: functional, cell-based
D(3) dopamine receptor [2] = molecular target: D(3) dopamine receptor (Rattus norvegicus, UniProt P19020); experiment: Displacement of [3H]spiperone from rat cloned dopamine D3 receptor expressed in HEK293 cells after 1 hr; type: cell-based
Chain of D(3) dopamine receptor (Rattus norvegicus, UniProt P19020) (P19020 whole entry): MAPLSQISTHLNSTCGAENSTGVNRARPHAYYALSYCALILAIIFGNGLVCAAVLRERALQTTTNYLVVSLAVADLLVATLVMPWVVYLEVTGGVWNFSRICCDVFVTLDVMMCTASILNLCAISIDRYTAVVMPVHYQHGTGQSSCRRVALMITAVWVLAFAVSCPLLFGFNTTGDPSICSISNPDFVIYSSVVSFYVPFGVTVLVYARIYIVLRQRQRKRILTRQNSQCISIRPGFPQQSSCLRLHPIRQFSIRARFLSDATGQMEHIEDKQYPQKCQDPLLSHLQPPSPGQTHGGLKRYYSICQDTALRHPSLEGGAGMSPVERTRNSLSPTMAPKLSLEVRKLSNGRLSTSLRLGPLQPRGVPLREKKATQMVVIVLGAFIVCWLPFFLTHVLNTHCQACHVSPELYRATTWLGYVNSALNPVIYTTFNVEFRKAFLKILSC

D(3) dopamine receptor [3] = molecular target: D(3) dopamine receptor (Homo sapiens, UniProt P35462); experiment: Agonist activity at human dopamine D3 receptor expressed in CHO cells assessed as stimulation of [35S]GTPgammaS binding after 60 mins by scintillation counting analysis; type: functional, cell-based
Chain of D(3) dopamine receptor (Homo sapiens, UniProt P35462) (P35462 whole entry): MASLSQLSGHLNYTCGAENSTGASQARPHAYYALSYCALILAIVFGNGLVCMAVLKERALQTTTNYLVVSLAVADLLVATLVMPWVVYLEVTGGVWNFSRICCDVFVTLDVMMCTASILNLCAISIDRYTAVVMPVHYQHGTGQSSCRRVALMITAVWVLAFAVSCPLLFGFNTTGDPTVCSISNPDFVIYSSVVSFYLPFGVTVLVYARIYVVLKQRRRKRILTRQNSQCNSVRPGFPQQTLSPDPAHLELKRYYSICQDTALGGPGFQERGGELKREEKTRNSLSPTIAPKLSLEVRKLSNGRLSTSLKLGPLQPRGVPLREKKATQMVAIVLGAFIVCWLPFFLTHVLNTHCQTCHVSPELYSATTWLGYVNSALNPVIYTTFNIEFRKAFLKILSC

D(2) dopamine receptor [4] = molecular target: D(2) dopamine receptor (Rattus norvegicus, UniProt P61169); experiment: Displacement of [3H]spiperone from rat cloned dopamine D2L receptor expressed in HEK293 cells after 1 hr; type: cell-based
Chain of D(2) dopamine receptor (Rattus norvegicus, UniProt P61169) (P61169 whole entry): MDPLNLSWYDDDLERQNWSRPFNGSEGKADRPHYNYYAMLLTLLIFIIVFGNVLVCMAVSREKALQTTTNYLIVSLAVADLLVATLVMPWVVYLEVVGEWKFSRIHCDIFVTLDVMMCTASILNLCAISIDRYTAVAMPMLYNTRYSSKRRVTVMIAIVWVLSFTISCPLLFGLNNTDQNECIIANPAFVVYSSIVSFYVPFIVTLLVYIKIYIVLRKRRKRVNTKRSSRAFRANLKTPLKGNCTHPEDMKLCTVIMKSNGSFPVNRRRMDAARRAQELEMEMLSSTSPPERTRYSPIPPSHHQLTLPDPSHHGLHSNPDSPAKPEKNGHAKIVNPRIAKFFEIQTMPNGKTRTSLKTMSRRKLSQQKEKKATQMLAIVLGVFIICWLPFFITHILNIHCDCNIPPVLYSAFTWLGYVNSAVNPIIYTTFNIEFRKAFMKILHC

D(2) dopamine receptor [5] = molecular target: T1, D(2) dopamine receptor; experiment: Agonist activity at human dopamine D2L receptor expressed in CHO cells assessed as stimulation of [35S]GTPgammaS binding after 60 mins by scintillation counting analysis relative to dopamine; type: functional, cell-based
Rattus norvegicus = species on record: Rattus norvegicus; experiment: Selectivity ratio of Ki for rat cloned dopamine D2L receptor to Ki for rat cloned dopamine D3 receptor

T1 sequence (P14416 whole entry): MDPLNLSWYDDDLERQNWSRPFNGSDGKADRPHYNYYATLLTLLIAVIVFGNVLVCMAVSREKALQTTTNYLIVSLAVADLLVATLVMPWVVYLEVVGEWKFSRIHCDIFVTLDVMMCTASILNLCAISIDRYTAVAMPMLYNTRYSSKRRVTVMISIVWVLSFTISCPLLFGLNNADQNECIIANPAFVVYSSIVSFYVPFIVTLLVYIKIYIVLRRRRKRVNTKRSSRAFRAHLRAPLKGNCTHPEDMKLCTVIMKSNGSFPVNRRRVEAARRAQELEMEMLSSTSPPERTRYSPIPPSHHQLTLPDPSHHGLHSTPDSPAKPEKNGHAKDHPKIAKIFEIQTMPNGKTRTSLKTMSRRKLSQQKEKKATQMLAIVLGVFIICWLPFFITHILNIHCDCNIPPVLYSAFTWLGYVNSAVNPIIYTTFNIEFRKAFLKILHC

| SMILES | EC50 (D(2) dopamine receptor [1]; read-out: EC50) [nM] | Ki (D(3) dopamine receptor [2]) [nM] | EC50 (D(3) dopamine receptor [3]; read-out: EC50) [nM] | Ki (D(2) dopamine receptor [4]) [nM] | Emax (D(2) dopamine receptor [5]) [%] | Ratio Ki (Rattus norvegicus) | EC50 (D(2) dopamine receptor [1]; cho) | EC50 (D(3) dopamine receptor [3]; cho) |
| --- | --- | --- | --- | --- | --- | --- | --- | --- |
| CCCN(CCN1CCN(c2ccccc2)CC1)[C@@H]1CCc2ccc(N)cc2C1 | 179 | 20.2 | 30.3 | 601 | 36.8 | – | – | – |
| CCCN(CCN1CCN(c2ccccc2OC)CC1)C1CCc2cc3[nH]c(=S)[nH]c3cc2C1 (centres undefined) | – | 112 | – | 230 | – | 2.05 | – | – |
| CCCN(CCN1CCN(c2ccccc2)CC1)C1CCc2cc3[nH]cnc3cc2C1 (centres undefined) | – | 60 | – | 1280 | – | 21.3 | – | – |
| CCCN(CCN1CCN(c2nccc3ccccc23)CC1)[C@H]1CCc2nc(N)sc2C1 | – | – | – | – | – | 121 | – | – |
| CCCN(CCN1CCN(c2ccccc2)CC1)C1CCc2cc3[nH]c(N)nc3cc2C1 (centres undefined) | – | – | – | – | – | 8.89 | – | – |
| CCCN(CCN1CCN(c2ccccc2OC)CC1)C1CCc2cc3[nH]c(=O)[nH]c3cc2C1 (centres undefined) | – | 195 | – | 417 | – | 2.14 | – | – |
| CCCN(CCN1CCN(c2ccccc2OC)CC1)C1CCc2cc3[nH]cnc3cc2C1 (centres undefined) | – | 19.7 | – | 443 | – | 22.5 | – | – |
| CCCN(CCN1CCN(c2ccccc2)CC1)[C@@H]1CCc2ccc(OS(=O)(=O)c3ccc(OC)cc3)cc2C1 | – | 26.9 | – | 1080 | – | 40 | – | – |
| CCCN(CCN1CCN(c2ccccc2)CC1)C1CCc2ccc(NC(=O)c3ccccc3)cc2C1 (centres undefined) | – | 109 | – | 624 | – | 5.72 | – | – |
| CCCN(CCN1CCN(c2ccccc2)CC1)C1CCc2ccc3nc[nH]c3c2C1 (centres undefined) | – | 54.1 | – | 520 | – | 9.61 | – | – |
| CCCN(CCN1CCN(c2ccccc2)CC1)C1CCc2ccc(NC(C)=O)cc2C1 (centres undefined) | – | 174 | – | 1300 | – | 7.44 | – | – |
| CCCN(CCN1CCN(c2ccccc2)CC1)C1CCc2ccc(N)cc2C1 (racemic) | – | 22.2 | – | 638 | – | – | – | – |
| CCCN(CCN1CCN(c2ccccc2)CC1)[C@H]1CCc2ccc(N)cc2C1 | – | 45.5 | – | 2710 | – | – | – | – |
| CCCN(CCN1CCN(c2ccccc2)CC1)[C@H]1CCc2c(cccc2OS(=O)(=O)c2ccc(C)cc2)C1 | – | 32 | – | 632 | – | 19.8 | – | – |

Further compounds by falling Ki (D(3) dopamine receptor [2]), results first:

| EC50 (D(2) dopamine receptor [1]; read-out: EC50) [nM] | Ki (D(3) dopamine receptor [2]) [nM] | EC50 (D(3) dopamine receptor [3]; read-out: EC50) [nM] | Ki (D(2) dopamine receptor [4]) [nM] | Emax (D(2) dopamine receptor [5]) [%] | Ratio Ki (Rattus norvegicus) | EC50 (D(2) dopamine receptor [1]; cho) | EC50 (D(3) dopamine receptor [3]; cho) | SMILES |
| --- | --- | --- | --- | --- | --- | --- | --- | --- |
| – | 17.6 | – | 497 | – | – | Not Active | Not Active | CCCN(CCN1CCN(c2ccccc2)CC1)[C@H]1CCc2c(cccc2OS(=O)(=O)c2ccc(OC)cc2)C1 |
| – | 10.7 | – | 127 | – | 11.9 | – | – | CCCN(CCN1CCN(c2ccccc2)CC1)C1CCc2cc3cc[nH]c3cc2C1 (centres undefined) |
| – | 8.64 | – | 91.2 | – | 10.6 | – | – | CCCN(CCN1CCN(c2ccccc2)CC1)C1CCc2ccc(NS(=O)(=O)c3ccc(C(F)(F)F)cc3)cc2C1 (centres undefined) |
| – | 4.13 | – | 72.4 | – | 17.5 | – | – | CCCN(CCN1CCN(c2ccccc2)CC1)C1CCc2ccc(NS(=O)(=O)c3ccc(Cl)cc3)cc2C1 (centres undefined) |
| – | 3.69 | – | 39.2 | – | 10.6 | – | – | CCCN(CCN1CCN(c2ccccc2)CC1)C1CCc2ccc(NS(=O)(=O)c3ccc(C)cc3)cc2C1 (centres undefined) |
| – | 2.32 | – | 101 | – | – | Not Active | Not Active | CCCN(CCN1CCN(c2ccccc2)CC1)[C@@H]1CCc2ccc(NS(=O)(=O)c3ccc(OC)cc3)cc2C1 |
| – | 2.22 | – | 64.9 | – | – | – | – | CCCN(CCN1CCN(c2ccccc2)CC1)C1CCc2ccc(NS(=O)(=O)c3ccc(OC)cc3)cc2C1 (racemic) |
| – | 1.84 | 0.26 | 1070 | 101 | – | – | – | CCCN(CCN1CCN(C(=O)c2cc3ccccc3[nH]2)CC1)C1CCc2nc(N)sc2C1 (centres undefined) |
